{"source": "paper PMC4002244", "about": "“ACE2 deficiency increases NADPH‐mediated oxidative stress in the kidney” (Physiological Reports, 2014)", "key": {"[1]": {"assay": "Ex vivo degradation of exogenous Ang II in kidney cortex lysates", "assay_type": "in vitro ADME, mouse", "conditions": "6 μg protein, Ang II 10^-9 mol/L, PBS pH 7.4 with 5 μmol/L ZnCl2, 37°C, ELISA", "protocol": "(§1) Kidney cortex lysates (from ACE2 KO and WT mice) corresponding to 6 μg of total protein were individually incubated with 10^−9mol/L angiotensin II (Sigma‐Aldrich, St. Louis, MO) by constant shaking for up to 24 h at 37°C in PBS pH 7.4 containing 5 μmol/L ZnCl2. The incubation was performed with or without addition of the specific ACE2 inhibitor, MLN‐4760 (10^−6mol/L). Following the incubation, samples were diluted 1/5 in EDTA‐containing buffer (0.1 mol/L phosphate buffer, pH 7.4 containing 0.15 mol/L NaCl, 1 mmol/L EDTA, 0.1% BSA) and immediately frozen. The quantity of Ang II in the diluted samples was measured using enzyme‐linked immunosorbent assay kits (SPIBio, Cayman Chemical). Angiotensin quantity in each sample was expressed as a percentage ratio of the Ang remaining after a given incubation time to the initial Ang load (100%)."}, "ACE2": {"molecular_target": "T1, ACE2 (Mus musculus, UniProt Q8R0I0)", "T1 construct": "from tissue; host or cells: kidney cortex of wild-type C57BL/6 mice (littermates of the ACE2KO mice)", "T1 sequence (Q8R0I0 18-805)": "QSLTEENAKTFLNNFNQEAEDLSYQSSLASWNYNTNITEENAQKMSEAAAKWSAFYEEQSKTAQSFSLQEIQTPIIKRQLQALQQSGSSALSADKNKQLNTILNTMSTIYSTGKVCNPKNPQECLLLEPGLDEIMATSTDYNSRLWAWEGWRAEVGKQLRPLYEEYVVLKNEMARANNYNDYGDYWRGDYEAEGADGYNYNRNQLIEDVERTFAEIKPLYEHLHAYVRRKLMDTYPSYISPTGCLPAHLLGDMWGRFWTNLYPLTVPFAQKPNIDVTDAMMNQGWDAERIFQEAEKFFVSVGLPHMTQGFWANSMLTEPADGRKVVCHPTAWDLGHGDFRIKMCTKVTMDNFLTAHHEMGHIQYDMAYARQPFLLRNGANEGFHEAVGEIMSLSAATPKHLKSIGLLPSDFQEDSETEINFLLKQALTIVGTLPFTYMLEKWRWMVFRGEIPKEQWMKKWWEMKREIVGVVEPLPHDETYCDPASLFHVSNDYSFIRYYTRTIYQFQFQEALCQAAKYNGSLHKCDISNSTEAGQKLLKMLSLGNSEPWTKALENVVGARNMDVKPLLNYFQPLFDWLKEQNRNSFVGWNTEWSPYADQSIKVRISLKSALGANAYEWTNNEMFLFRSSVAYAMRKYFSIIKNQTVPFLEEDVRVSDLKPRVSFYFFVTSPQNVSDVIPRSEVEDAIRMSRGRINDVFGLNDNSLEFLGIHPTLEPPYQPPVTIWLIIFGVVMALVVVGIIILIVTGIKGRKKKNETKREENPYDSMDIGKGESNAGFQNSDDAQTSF", "assay": "Ex vivo Ang II degradation by kidney cortex lysates with ACE2 inhibitor", "assay_type": "biochemical", "conditions": "WT lysates (6 μg protein, n = 5), MLN-4760 10^-6 mol/L, Ang II 10^-9 mol/L, PBS pH 7.4 with 5 μmol/L ZnCl2, 37°C, up to 24 h, Ang II by ELISA; P < 0.05 vs. WT without MLN-4760; similar to ACE2KO", "protocol": "as §1"}, "[2]": {"system": "kidney cortex NADPH oxidase activity", "assay": "Kidney cortex NADPH oxidase activity (lucigenin chemiluminescence) in ACE2KO mice after angiotensin receptor blockade", "assay_type": "in vivo, mouse", "conditions": "for Kidney cortex NADPH oxidase activity, percent of WT controls: male ACE2KO C57BL/6 mice, 2 weeks", "protocol": "NADPH oxidase activity in kidney cortex was measured using lucigenin (5 μmol/L) and NADPH (100 μmol/L) as previously described (Block et al. 2007). Light emission was recorded every 1 min over a 10‐min period at room temperature in a 20/20^n luminometer (Turner Biosystems, Sunnyvale, CA). Superoxide anion production was expressed as relative chemiluminescence (light) units (RLU)/μg protein. There was no measurable activity in the absence of NADPH. Protein content was measured using the BCA protein assay reagent (Pierce, Rockford, IL).\nACE2KO and control mice at the age of 20–30 weeks were treated with losartan (Triangle Compounding Pharmacy, Cary, NC) or placebo for 2 weeks. Losartan was administered to ACE2KO at two doses: 10 mg/kg/day (n = 4) and 30 mg/kg/day (n = 5) in drinking water in two separate experiments. Another group of ACE2KO (n = 6) and WT controls (n = 5 and n = 10) were given vehicle drug, with similar taste and consistency. Water bottles were weighed daily to document accurate drug consumption. At the end of 2 weeks of treatment with losartan, we proceeded to measure markers of oxidative stress as described above.\nA separate group of male ACE2 knockout mice at 35 weeks of age underwent either sham operation (n = 8) or osmotic minipump (Alzet 1002) implantation to infuse the AT2 receptor blocker, PD123319 (2 mg/kg/day, n = 8) for 14 days. Pumps were implanted subcutaneously on the back between the shoulder blades and hips while animals were anesthetized by inhalation of isoflurane anesthetic. At the end of 2 weeks of treatment with PD123319, we proceeded to measure markers of oxidative stress as described above."}}, "data": [{"smiles": "CC[C@H](C)[C@H](NC(=O)[C@H](Cc1ccc(O)cc1)NC(=O)[C@@H](NC(=O)[C@H](CCCNC(=N)N)NC(=O)[C@@H](N)CC(=O)O)C(C)C)C(=O)N[C@@H](Cc1cnc[nH]1)C(=O)N1CCC[C@H]1C(=O)N[C@@H](Cc1ccccc1)C(=O)O", "note": "[Ang II, angiotensin II]", "values": [{"measurement": "Ang II degradation by WT versus ACE2KO kidney cortex lysates (in words)", "setting": "[1]; 6 and 24 h of incubation, n = 5 per group, P < 0.05", "value": "kidney lysates from WT mice degrade significantly more Ang II than the lysates obtained from ACE2KO"}, {"measurement": "metabolised", "setting": "[1]; mouse, kidney cortex lysates (ACE2 KO, with MLN-4760 (ACE2 inhibitor, 10^-6 mol/L) in the WT lysates), lysates of ACE2 KO or WT + MLN-4760 (10^-6 mol/L), constant shaking, up to 24 h, n = 5, read-out: Proportion of Ang II degraded in kidney cortex lysates despite the lack of ACE2", "value": "~50", "unit": "%"}]}, {"smiles": "CC(C)C[C@H](N[C@@H](Cc1cncn1Cc1cc(Cl)cc(Cl)c1)C(=O)O)C(=O)O", "note": "[MLN-4760]", "values": [{"measurement": "Effect of co-incubation on Ang II degradation rate by WT kidney cortex lysates", "setting": "ACE2", "value": "significant decrease in Ang II degradation rate"}]}, {"smiles": "Cc1cc(Cn2cnc3c2C[C@@H](C(=O)O)N(C(=O)C(c2ccccc2)c2ccccc2)C3)ccc1N(C)C", "note": "[PD123319]", "values": [{"measurement": "Kidney NADPH oxidase activity, percent of sham-operated ACE2KO mice", "setting": "[2]; male ACE2KO mice, 35 weeks old, PD123319 2 mg/kg/day subcutaneous osmotic minipump, 14 days, n = 8, sham-operated ACE2KO 100 ± 21%, P = 0.541, mean ± SEM, SEM", "value": "83 ± 17", "unit": "%"}]}, {"smiles": "CCCCc1nc(Cl)c(CO)n1Cc1ccc(-c2ccccc2-c2nn[nH]n2)cc1", "note": "[losartan]", "values": [{"measurement": "Effect on kidney NADPH oxidase activity in ACE2KO (in words)", "setting": "[2]; ACE2KO mice, losartan 30 mg/kg/day", "value": "normalization of NADPH oxidase activity"}, {"measurement": "Kidney cortex NADPH oxidase activity, percent of WT controls", "setting": "[2]; losartan 10 mg/kg/day in drinking water, n = 4, vehicle WT 100 ± 20%, P < 0.05, vehicle ACE2KO 181 ± 24%, mean ± SEM, SEM", "value": "201 ± 22", "unit": "%"}, {"measurement": "Kidney cortex NADPH oxidase activity, percent of WT controls", "setting": "[2]; losartan 30 mg/kg/day in drinking water, n = 5, vehicle WT 100 ± 18% (n = 10), P = 0.709, mean ± SEM, SEM", "value": "83 ± 29", "unit": "%"}]}]}
